Test results as given in patent publication US8975246B2, “Bile acid or bile salt fatty acid conjugates” (Galmed Research and Development Ltd., priority 2001, dated 2015).

Columns and labels:
Format in all cases: in vivo
human patients = experiment: Human study: change in insulin; settings: for Change from Baseline in Insulin, Max / Change from Baseline in Insulin, Mean / Change from Baseline in Insulin, Median / Change from Baseline in Insulin, Min: ITT
Protocol: The effects of BAFACs on disorders associated with Fatty liver, insulin resistance and altered glucose metabolism were tested on 60 human patients. Experiments were subdivided to 2 dosage regimens: Aramchol 300 mg daily (high dose) and 100 mg daily (low dose) respectively for a total period time of 3 months. The Aramchol:placebo ratio is of 2:1 for the low dose arm, and 1:1 for the high dose arms.
The study period included a 3 month treatment period with Aramchol low dose, or Aramchol high dose, or placebo, and a one month follow-up period. Aramchol was given daily orally. During the treatment period, all patients attended periodic […] (at first month) and subsequently monthly study-center visits in order to assess safety and efficacy of the treatment.
The results are shown using two known in the art principle statistical evaluation on, Intention-To-Treat (ITT) and Per Protocol (PP) populations. The ITT principle asserts that the effect of a treatment policy can be best assessed by evaluation on the basis of the intention to treat a subject (i.e. the planned treatment regimen) rather than the actual treatment given. It has the consequence that subjects allocated to a treatment group should be followed up, assessed and analyzed as members of that group irrespective of their compliance to the planned course of treatment. […] Compliance covers such considerations as exposure to treatment, availability of measurements and absence of major protocol violations.

ICR male mice = experiment: Fasting blood glucose, streptozotocin treated mice (IDDM model); settings: Streptozotocin 200 mg/kg i.p., regular diet, BAFAC 150 mg/kg/day by gavage, 16 days
Protocol: The effects of BAFACs on fasting blood glucose were tested in 3 animal species: Hamsters, Rats and Mice. The animals were kept on regular or high fat diets (as specified). In each group half of the animals received a daily BAFAC dose (150 mg/kg) dispersed in 0.5 ml of saline by gavage. The other half received similarly, by gavage, an equal volume of saline only. All animals were kept on a 12 hr day/night cycle at 22° C. throughout the experiment. They had access to water ad libidum.
ICR male mice, 4 weeks old (approx. 20 gm) were fed a regular diet. Streptozotocin 200 mg/kg was injected i.p. on the first day of the experiment. (This induced damage to the islet cells of the pancreas and simulated IDDM). Fasting blood glucose was obtained from sacrificed animals after 16 days of the trial. There were 3 groups of 7 animals each. Controls—regular diet only. Streptozotocin (Stz) treated animals receiving saline only by gavage and streptozocin treated animals receiving 150 mg/kg/day of BAFAC by gavage. The BAFAC used in all these hyperglycemia studies was a conjugate of arachidic and cholic acid (at position 3) using an amide bond (C-20 BAFAC, Aramchol).

C57 male inbred mice = experiment: Fatty liver histologic score, mice on Western diet; settings: Western diet + BAFAC 150 mg/kg/day, 4 W
Protocol: The presence of fatty liver was evaluated by a pathologist unaware of the treatments, scoring coded slides in a blinded manner.
The scoring system was as follows:
C57 male inbred mice (Jackson Lab., Maine, USA) 4-6 weeks old weighing 20-25 gm were used. They were fed a “Western” diet (George et. al. Circulation 2000, 102:1822-27) containing cholesterol 1.5 gm/kg and Fat 42%, Carbohydrates 43%, and Protein 15% (as % of calories). Half were given in addition 150 mg/kg/day of 3β-arachidylamido-7α,12α-dihydroxy-5β-cholan-24-oic acid suspended in saline by intragastric gavage. The other half were similarly given saline only. After 4 weeks the animals were anesthetized and sacrificed. Liver and other organs were removed and placed in formaline prior to histologic examination

Inbred C57J/L male mice = experiment: Serum cholesterol of mice on lithogenic diet
Protocol: Inbred C57J/L male mice (Jackson Lab., Maine, USA) 4-6 weeks old weighing 20-25 gm were used. They were given their regular diet supplemented with (% w/w) Butter fat 15, Cholesterol 1, Cholic Acid 0.5, Corn Oil 2 (modified from Khanuia et al., Proc. Natnl. Acad. Sci. USA 1995; 92:7729-33) for 4-8 weeks (Lithogenic diet #2). Half of the group were given 3β-arachidylamido-7α,12α-dihydroxy-5β-cholan-24-oic acid at a dose of 150 mg/kg/day suspended in saline by intragastric gavage. The other half were similarly given an equal volume of saline. After 4-8 weeks the animals were anesthetized, heart blood was drawn for analysis. The liver and other organs were removed. Serum cholesterol levels were determined by autoanalyzer.
Another group of C57 J/L male inbred mice (Jackson Laboratories, Maine, USA) 4-6 weeks old weighing 20-25 gm. were given a lithogenic diet (No. 2) for 8 weeks and then a regular diet for another 8 weeks. During the 8 weeks of the regular diet part of the animals were given 3β-arachidylamido-7α,12α-dihydroxy-5β-cholan-24-oic acid by intragastric gavage at a dose of 150 mg/kg/day. After a total of 16 weeks the animals were anesthetized, heart blood was drawn for analysis. Liver and other organs were removed. Serum cholesterol levels were analyzed as above. A third group of animals were given a regular diet throughout the 16 weeks and then similarly analyzed.

CCCCCCCCCCCCCCCCCCCC(=O)N[C@H]1CC[C@@]2(C)[C@@H](C1)C[C@@H](O)[C@@H]1[C@@H]2C[C@H](O)[C@]2(C)[C@@H]([C@H](C)CCC(=O)O)CC[C@@H]12 [Aramchol, 3β-arachidylamido-7α,12α-dihydroxy-5β-cholan-24-oic acid]
Change from Baseline in Insulin, Max (human patients; Aramchol 100 mg/d oral): 38.9
Change from Baseline in Insulin, Mean (human patients; Aramchol 100 mg/d oral): 5.6
Change from Baseline in Insulin, Median (human patients; Aramchol 100 mg/d oral): 2.5
Change from Baseline in Insulin, Min (human patients; Aramchol 100 mg/d oral): −7.4
Change from Baseline in Insulin, Max (human patients; Aramchol 300 mg/d oral): 9.1
Change from Baseline in Insulin, Mean (human patients; Aramchol 300 mg/d oral): −21.1
Change from Baseline in Insulin, Median (human patients; Aramchol 300 mg/d oral): 0.9
Change from Baseline in Insulin, Min (human patients; Aramchol 300 mg/d oral): −367.5
basal insulin levels (in words) (human patients; tested subjects, Table 8): reduces basal insulin levels
fasting blood glucose (ICR male mice): markedly reduced
Fatty Liver Scores: number of animals with score 0 (C57 male inbred mice; n 14, 0 - No fatty liver): 12
Fatty Liver Scores: number of animals with score 1 (C57 male inbred mice; n 14, 1 - Minimal fatty liver): 1
Fatty Liver Scores: number of animals with score 4 (C57 male inbred mice; n 14, 4 - Severe fatty liver): 1
Fatty Liver Score, mean (C57 male inbred mice; score 0 (no fatty liver) to 4 (severe, >50% of liver surface)): 0.35
Serum Cholesterol (mean + StD) (Inbred C57J/L male mice; Lithogenic diet 2 + BAFAC II 150 mg/kg/day by gavage, 4 W): 143 (19.8) mg %
Serum Cholesterol (mean + StD) (Inbred C57J/L male mice; Lithogenic diet 2 + BAFAC II 150 mg/kg/day by gavage, 6 W): 125 (10.8) mg %
Serum Cholesterol (mean + StD) (Inbred C57J/L male mice; Lithogenic diet 2 + BAFAC II 150 mg/kg/day by gavage, 8 W): 139 (0.7) mg %
Serum Cholesterol (mean + StD) (Inbred C57J/L male mice; Lithogenic diet 2 for 8 W then regular diet 8 W with BAFAC II 150 mg/kg/day, total 16 W): 65 (6.8) mg %
